Experimental data taken from patent publication US20100234435A1, “CYCLOALKYLAMINO ACID DERIVATIVES” (priority 2007, published 2010).
Structures can show the parent of a compound that is named as a salt.

Experiments:
S1P4 = target: T1, S1P4 (Homo sapiens, UniProt O95977); assay: Radioligand binding assay, 33P-S1P labelled S1P4 receptor; settings: 33P-S1P labelled receptors
T1 construct: expressed in transfected cells; membranes
T1 sequence (O95977 1-384): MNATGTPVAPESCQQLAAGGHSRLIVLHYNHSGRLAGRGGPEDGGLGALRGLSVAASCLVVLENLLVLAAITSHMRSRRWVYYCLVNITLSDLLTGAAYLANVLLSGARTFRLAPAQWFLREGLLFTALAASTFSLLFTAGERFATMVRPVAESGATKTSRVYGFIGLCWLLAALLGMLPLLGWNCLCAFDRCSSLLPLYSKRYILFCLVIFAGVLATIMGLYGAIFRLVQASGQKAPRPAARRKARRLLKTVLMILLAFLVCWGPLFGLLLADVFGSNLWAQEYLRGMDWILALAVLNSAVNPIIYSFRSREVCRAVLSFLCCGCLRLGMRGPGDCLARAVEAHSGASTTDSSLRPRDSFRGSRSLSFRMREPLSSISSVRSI
Protocol: (§1) HEK293 or CHO cells expressing S1P1-5, are prepared in ˜0.5×10^5 cells/well. Cells are plated into each well of a 6-well plate in 2 ml of growth media (OptiMEM, Invitrogen). Two micrograms receptor plasmid DNA is mixed in 200 ul OptiMEM, and combined with 6 ul Lipofectamine (2000-9, Invitrogen). The mixture is added drop wise to 2 ml of growth media covering the cells in each well. The cells are allowed to transfect for 8-18 hours at room temperature. The OptiMEM transfection medium is replaced with 2 ml fresh serum-containing medium an incubated for 48 hours. The cells are diluted 1:10 in selection media (OptiMEM. Invitrogen) containing 0.8 mg/ml G418 in 10 cm dishes. Colonies are allowed to form (˜1-2 weeks), and 12 colonies from each dish are independently harvested with cloning disks and placed into 24-well plates.
(§2) Cell membranes from CHO-S1P1-5 or HEK-S1P1-5 transfected cells are prepared by homogenizing the cells in an ice cold solution containing 25 mM Tris, 5 mM EDTA, 5 mM EGTA, and Complete Protease Inhibitor Cocktail, EDTA-Free (Roche #1 873 580). Cells are lysed by dounce homogenization and centrifugation at 20,000×g for 20 minutes at 4° C. Membrane pellets are resuspended in the same buffer and centrifuged again at 20,000×g for 20 minutes at 4° C. Final membrane pellet is resuspended in 20 mM HEPES, pH 7.5, 5 mM MgCl2, 1 mM CaCl2. Protein concentration is determined using the Micro BCA protein assay (Pierce #23235).
(§3) Serial dilutions of test compounds in DMSO are prepared in 96 well polypropylene plates. Using the FX robot 1:50 intermediate dilutions are made to assay buffer (20 mM HEPES, pH 7.5, 5 mM MgCl2, 1 mM CaCl2, 4 mg/ml fatty-acid free BSA). This intermediate is further diluted 1:10 to the final assay reaction. Final DMSO concentration in the reaction is 0.2%. Final reaction contains 50 pM ^33P-S1P (Perkin Elmer; Special Order), and 2.5 μg of cell membranes. The reaction is incubated at room temperature for 30 minutes and stopped by filtration through GF/B UniFilter Plates (Perkin Elmer #6005177) and washed four times with wash buffer containing 50 mM Tris pH 7.4, 0.025% Tween-20. The filter plates are dried for approximately 20 minutes in an oven at 50° C. Back seals are adhered to the filter plates and 40 μl of Microscint-20 scintillation fluid is added (Perkin Elmer #6013621). The filter plates are sealed, shaken for 30 minutes at room temperature, and counted on a Top Count (PerkinElmer).

S1P3 = target: T2, S1P3 (Homo sapiens, UniProt Q99500); assay: Radioligand binding assay, 33P-S1P labelled S1P3 receptor; settings: 33P-S1P labelled receptors
T2 construct: expressed in transfected cells; membranes
Protocol: as §1, §2, §3

S1P1 = target: T3, S1P1 (Homo sapiens, UniProt P21453); assay: Radioligand binding assay, 33P-S1P labelled S1P1 receptor; settings: 33P-S1P labelled receptors
T3 construct: expressed in transfected cells; membranes
Protocol: as §1, §2, §3

[1] = Terminal half life and clearance from blood samples; type: in vivo, CD1 mice; settings: CD1, mouse, oral; for clearance: read-out: Cl (ml/min/kg) (clearance)
Text: Agonium of S1P1 results in S1P1 internalization, inhibiting lymphocyte egress into circulation, and is clinically presented as lymphopenia (Chiba, Pharmacology & Therapeutics 2005; 108,308-319, 2005). The following protocol may be used to assess the potential induction of lymphopenia for the test compounds when administered as a single oral dose to CD1 mice.
A suspension of 5% Gelucire may be used as the vehicle to prepare dosing formulations and to dose vehicle control animals. Test compound is weighed and transferred to a 15 mL Falcon tube or equivalent to make stock formulations. The appropriate amount of 5% Gelucire vehicle is then added to the tube. The resulting formulation is sonicated with a probe sonicator until no obvious particulate matter is apparent. About 500 mL Gelucire (Gattefosse, St-Priest, Cedex, France) is melted in a 1000 W microwave oven set for 3 minutes on high power. The appropriate amount of Gelucire is added to deionized water to form 5% (vol/vol) aqueous Gelucire.
Blood samples (˜0.6-0.8 mL) may be collected via intracardiac puncture at appropriate time points. The mice are anesthetized by carbon dioxide and euthanized via exanguination by intracardiac puncture. Blood samples are obtained and placed in tubes containing EDTA. Lymphocytes (L, %) count is measured with Abbott Cell-Dyn 3700 automated analyzer.
Samples of blood were taken to determine terminal half life (T½) and clearance of the compounds, using well accepted methods for such assays.

S1P5 = target: T4, S1P5 (Homo sapiens, UniProt Q9H228); assay: Radioligand binding assay, 33P-S1P labelled S1P5 receptor; settings: 33P-S1P labelled receptors
T4 construct: expressed in transfected cells; membranes
Protocol: as §1, §2
(§4) Serial dilutions of test compounds in DMSO are prepared in 96 well polypropylene plates. Using the FX robot 1:50 intermediate dilutions are made to assay buffer (20 mM HEPES, pH 7.5, 5 mM MgCl2, 1 mM CaCl2, 4 mg/ml fatty-acid free BSA). This intermediate is further diluted 1:10 to the final assay reaction. Final DMSO concentration in the reaction is 0.2%. […] The filter plates are sealed, shaken for 30 minutes at room temperature, and counted on a Top Count (PerkinElmer).

S1P2 = target: T5, S1P2 (Homo sapiens, UniProt O95136); assay: Radioligand binding assay, 33P-S1P labelled S1P2 receptor; settings: 33P-S1P labelled receptors
T5 construct: expressed in transfected cells; membranes
Protocol: as §1, §2, §4

T3 sequence (P21453 whole entry): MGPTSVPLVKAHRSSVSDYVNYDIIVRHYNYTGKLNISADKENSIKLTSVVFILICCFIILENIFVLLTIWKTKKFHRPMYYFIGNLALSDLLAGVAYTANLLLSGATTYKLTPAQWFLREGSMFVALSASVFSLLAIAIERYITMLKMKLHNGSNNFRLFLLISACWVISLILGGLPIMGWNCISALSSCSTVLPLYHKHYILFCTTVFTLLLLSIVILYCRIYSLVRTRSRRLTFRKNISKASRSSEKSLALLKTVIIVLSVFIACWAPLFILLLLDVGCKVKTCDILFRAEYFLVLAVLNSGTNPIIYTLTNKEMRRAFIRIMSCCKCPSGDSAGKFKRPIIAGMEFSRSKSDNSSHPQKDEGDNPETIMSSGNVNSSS
T2 sequence (Q99500 whole entry): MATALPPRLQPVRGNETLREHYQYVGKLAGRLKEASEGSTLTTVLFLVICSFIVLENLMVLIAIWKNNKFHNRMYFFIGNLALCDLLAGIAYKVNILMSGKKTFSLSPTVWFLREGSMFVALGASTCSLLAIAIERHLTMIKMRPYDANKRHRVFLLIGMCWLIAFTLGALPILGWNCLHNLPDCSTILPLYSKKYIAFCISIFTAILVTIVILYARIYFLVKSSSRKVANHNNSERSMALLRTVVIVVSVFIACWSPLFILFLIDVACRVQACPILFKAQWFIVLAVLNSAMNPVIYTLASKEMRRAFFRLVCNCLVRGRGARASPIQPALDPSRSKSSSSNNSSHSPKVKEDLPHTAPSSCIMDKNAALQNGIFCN
T4 sequence (Q9H228 whole entry): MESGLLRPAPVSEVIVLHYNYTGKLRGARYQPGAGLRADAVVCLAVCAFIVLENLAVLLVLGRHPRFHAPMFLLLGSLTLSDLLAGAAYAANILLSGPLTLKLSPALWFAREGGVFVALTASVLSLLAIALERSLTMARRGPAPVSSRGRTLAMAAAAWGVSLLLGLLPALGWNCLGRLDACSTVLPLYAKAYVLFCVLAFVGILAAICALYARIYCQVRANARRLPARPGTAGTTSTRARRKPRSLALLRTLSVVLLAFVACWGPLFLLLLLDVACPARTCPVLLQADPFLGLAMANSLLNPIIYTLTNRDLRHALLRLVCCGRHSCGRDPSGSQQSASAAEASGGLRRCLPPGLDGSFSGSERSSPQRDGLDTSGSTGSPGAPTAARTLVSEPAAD
T5 sequence (O95136 whole entry): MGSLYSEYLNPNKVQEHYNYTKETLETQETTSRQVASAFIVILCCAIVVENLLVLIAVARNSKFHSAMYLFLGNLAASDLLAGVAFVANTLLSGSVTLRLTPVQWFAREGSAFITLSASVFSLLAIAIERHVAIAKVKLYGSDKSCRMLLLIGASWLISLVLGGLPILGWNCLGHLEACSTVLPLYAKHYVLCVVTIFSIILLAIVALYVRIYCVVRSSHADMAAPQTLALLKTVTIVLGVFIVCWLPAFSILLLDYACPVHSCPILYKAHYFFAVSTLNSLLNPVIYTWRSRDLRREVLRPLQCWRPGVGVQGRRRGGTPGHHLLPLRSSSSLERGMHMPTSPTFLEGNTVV

IC50 (S1P4) [nM]	IC50 (S1P3) [nM]	Ki (S1P1) [nM]	half-life [1] [h]	clearance [1] [mL/min/kg]	IC50 (S1P5) [nM]	IC50 (S1P2) [nM]	Compound
15	7.1	0.16					CCCCCCCCCCCCC/C=C/[C@@H](O)[C@@H](N)COP(=O)(O)O [Example S1P, sphingosine-1-phosphate, reference compound]
35	> 1000	0.29	5.2	6	2.9	> 1000	CC(C)Cc1ccc(-c2nc(-c3ccc([C@@H](C)N[C@H]4C[C@@H](C(=O)O)C4)cc3)no2)cc1 [cis-3-{[(1R)-1-{4-[5-(4-Isobutylphenyl)-1,2,4-oxadiazol-3-yl]phenyl}ethyl]amino}cyclobutanecarboxylic acid]
331	> 1000	2.7	6.7	5.11	11	> 1000	CC(C)Cc1ccc(-c2nc(-c3ccc([C@H](C)N[C@H]4C[C@@H](C(=O)O)C4)cc3)no2)cc1 [cis-3-{[(1S)-1-{4-[5-(4-isobutylphenyl)-1,2,4-oxadiazol-3-yl]phenyl}ethyl]amino}cyclobutanecarboxylic acid, hydrochloride salt]
438	> 1000	4.6			15	> 1000	CC(C)Cc1ccc(-c2nc(-c3ccc([C@@H](C)N[C@H]4C[C@H](C(=O)O)C4)cc3)no2)cc1 [trans-3-{[(1R)-1-{-4-[5-(4-Isobutylphenyl)-1-1,2,4-oxadiazol-3-yl]phenyl}ethyl]amino}cyclobutanecarboxylic acid]
